Here are results for 23 molecules from patent US20260272895A1, “METHODS AND KITS FOR DELIVERY OF COMPOUNDS INTO CELLS” (Yale University, priority 2023, published 2026).

In one test the test system is brain cell types. Kind of test: In vivo two-photon imaging of mouse cortex after topical cortical administration of fluorophores. The following applies: cell type taking up the compound in vivo (Table 1). The protocol:
Briefly, animals are anaesthetized via intraperitoneal injections of ketamine/xylazine or via inhaled isoflurane. A region of the skull (3×3 mm) is gently removed with a high-speed drill and the underlying dura is removed. A small glass coverslip is placed over the skull to allow long term optical access for in vivo imaging. Labeling with fluorescent dyes is performed either via intravenous injections or topically application to the cortical surface for 20 min prior to glass cover placement. After recovery, in vivo images are acquired using a two-photon microscope (Bruker Technologies) equipped with a multimodal (fixed wavelength 1040 nm and tunable wavelength) InSight X3 two-photon laser (Spectra Physics) and 20× water immersion objective (Zeiss 1.0N.A.). The two-photon laser is appropriately tuned to excite particular fluorescent dyes and proteins as needed. In selected cases, following in vivo imaging, mice will be sacrificed and perfused for follow up immunohistochemistry and high-resolution confocal imaging (Leica SP8) to further confirm colocalization of dyes and cells expressing particular transporters.
One-month-old wild-type mice were anesthetized using a ketamine/xylazine solution at doses of 100 mg/kg and 10 mg/kg, respectively. The fur around the skull area was shaved, and buprenex (0.1 mg per kg) and carprofen (5 mg per kg) were administered subcutaneously. Mice were kept on a heating pad at 37° C., and anesthesia was periodically monitored. The skin was treated with povidone-iodine solution, followed by cleaning with ethanol, and eye ointment was applied. A small skin section was excised to expose the skull. Thinning of the skull was performed in a circular area, followed by delicately lifting of the remaining skull without harm to the underlying brain. Within the circular region, the dura was gently removed using fine forceps, and a 4 mm cover glass was softly pressed onto the brain surface and affixed to the skull. Fluorescent dyes were applied either through intravenous injections or topically to the cortical surface for 20 minutes before placing the glass cover. A customized head bar was attached either by adhesive (for acute imaging) or permanently implanted (using dental cement, for chronic imaging) onto the skull. Mice were imaged under a two-photon microscope (Prairie Technologies) with a mode-locked MaiTai tunable laser (Spectra Physics). Imaging was performed with a 20× water immersion objective (Zeiss, 1.0NA). Images were captured at depths up to 300 μm from the pial surface using excitation wavelengths ranging from 750 to 950 nm as previously described. Mice undergoing chronic imaging received a recovery period on a heating pad post-surgery, and buprenex (0.1 mg per kg) and carprofen (5 mg per kg) were administered for 3 days.
Batches of 10 compounds were applied through the craniotomy to the cortical surface before placing a cover glass window. No additional washings were performed, and the cover glass was placed, allowing up to 3 hours of imaging of the cortical surface with a two-photon microscope. Following imaging, the data were analyzed to identify potential patterns of cell-specific labeling. […] Positive batches underwent three additional rounds of imaging, with each batch being sequentially split, until a single compound displaying cell-type-specific labeling was identified. As these compounds were not initially purified, the labeling may have resulted from fluorescent byproducts of synthesis. Consequently, large-scale synthesis, purification and characterization (FIGS. 29A-29D) of the identified compounds were conducted. The purified compounds were subsequently retested using in vivo imaging to confirm cell type specificity.
It was reasoned that the best strategy to identify fluorophores with specific affinity to certain cell types and transport mechanisms would be by direct screening in the intact in vivo brain microenvironment. […]
On to `O=S(=O)([O-])c1cc(S(=O)(=O)O)ccc1C1=c2cc3c4c(c2Oc2c1ccc(Cl)c2F)CCC[N+]=4CCC3` [Compound 20, 2-(12-chloro-13-fluoro-1,2,3,5,6,7-hexahydrochromeno[2,3-f]pyrido[3,2,1-ij]quinolin-4-ium-9-yl)-5-sulfobenzenesulfonate], for which the Target entry is recorded as “Endothelial”.

For `CN(C)c1ccc2c(c1)Oc1c3c4c(cc1=C2c1ccc(S(=O)(=O)O)cc1S(=O)(=O)[O-])CCC[N+]=4CCC3` [Compound 36, 2-(12-(dimethylamino)-1,2,3,5,6,7-hexahydrochromeno[2,3-f]pyrido[3,2,1-ij]quinolin-4-ium-9-yl)-5-sulfobenzenesulfonate], the Target entry is listed as “Astrocyte”.

For `O=S(=O)([O-])c1cc(S(=O)(=O)O)ccc1C1=c2cc3c4c(c2Oc2cc(I)c(Cl)cc21)CCC[N+]=4CCC3` [Compound 16, 2-(11-chloro-12-iodo-1,2,3,5,6,7-hexahydrochromeno[2,3-f]pyrido[3,2,1-ij]quinolin-4-ium-9-yl)-5-sulfobenzenesulfonate], the Target result is listed as “Endothelial”.

As to `O=S(=O)([O-])c1cc(S(=O)(=O)O)ccc1C1=c2cc3c4c(c2Oc2cc(Cl)c(F)cc21)CCC[N+]=4CCC3` [Compound 11, 2-(12-chloro-11-fluoro-1,2,3,5,6,7-hexahydrochromeno[2,3-f]pyrido[3,2,1-ij]quinolin-4-ium-9-yl)-5-sulfobenzenesulfonate], the Target result is given as “Endothelial”.

For the molecule `O=S(=O)([O-])c1cc(S(=O)(=O)O)ccc1C1=c2cc3c4c(c2Oc2c(Br)cccc21)CCC[N+]=4CCC3` [Compound 5, 2-(13-bromo-1,2,3,5,6,7-hexahydrochromeno[2,3-f]pyrido[3,2,1-ij]quinolin-4-ium-9-yl)-5-sulfobenzenesulfonate], the Target entry is “Endothelial”.

As to `O=S(=O)([O-])c1cc(S(=O)(=O)O)ccc1C1=c2cc3c4c(c2Oc2cc(Cl)ccc21)CCC[N+]=4CCC3` [Compound 3, 2-(12-chloro-1,2,3,5,6,7-hexahydrochromeno[2,3-f]pyrido[3,2,1-ij]quinolin-4-ium-9-yl)-5-sulfobenzenesulfonate], the Target entry was “Endothelial”.

For `O=S(=O)([O-])c1cc(S(=O)(=O)O)ccc1C1=c2cc3c4c(c2Oc2cc(Cl)c(Br)cc21)CCC[N+]=4CCC3` [Compound 13, 2-(11-bromo-12-chloro-1,2,3,5,6,7-hexahydrochromeno[2,3-f]pyrido[3,2,1-ij]quinolin-4-ium-9-yl)-5-sulfobenzenesulfonate], the Target result is recorded as “Endothelial”.

`O=S(=O)([O-])c1cc(S(=O)(=O)O)ccc1-c1c2ccc(B(O)O)cc2[o+]c2c3c4c(cc12)CCCN4CCC3` [Compound 41, 2-(12-borono-2,3,6,7-tetrahydro-1H,5H-chromeno[2,3-f]pyrido[3,2,1-ij]quinolin-14-ium-9-yl)-5-sulfobenzenesulfonate]: the Target result is “Endothelial”.

Consider `O=S(=O)([O-])c1cc(S(=O)(=O)O)ccc1C1=c2cc3c4c(c2Oc2cc5ccc(Br)cc5cc21)CCC[N+]=4CCC3` [Compound 44, 2-(12-bromo-1,2,3,5,6,7-hexahydrobenzo[6,7]chromeno[2,3-f]pyrido[3,2,1-ij]quinolin-4-ium-9-yl)-5-sulfobenzenesulfonate], for which the Target entry is on record as “Endothelial”.

Turning to `O=S(=O)([O-])c1cc(S(=O)(=O)O)ccc1C1=c2cc3c4c(c2Oc2c1ccc(F)c2F)CCC[N+]=4CCC3` [Compound 19, 2-(12,13-difluoro-1,2,3,5,6,7-hexahydrochromeno[2,3-f]pyrido[3,2,1-ij]quinolin-4-ium-9-yl)-5-sulfobenzenesulfonate], the Target result is recorded as “Endothelial”.

As to `O=S(=O)([O-])c1cc(S(=O)(=O)O)ccc1C1=c2cc3c4c(c2Oc2cc(F)c(Br)cc21)CCC[N+]=4CCC3` [Compound 10, 2-(11-bromo-12-fluoro-1,2,3,5,6,7-hexahydrochromeno[2,3-f]pyrido[3,2,1-ij]quinolin-4-ium-9-yl)-5-sulfobenzenesulfonate], the Target result is on record as “Endothelial”.

Regarding `O=S(=O)([O-])c1cc(S(=O)(=O)O)ccc1C1=c2cc3c4c(c2Oc2c1ccc(Cl)c2Cl)CCC[N+]=4CCC3` [Compound 23, 2-(12,13-dichloro-1,2,3,5,6,7-hexahydrochromeno[2,3-f]pyrido[3,2,1-ij]quinolin-4-ium-9-yl)-5-sulfobenzenesulfonate], the Target result is “Endothelial”.

For the molecule `Cc1ccc2c(-c3ccc(S(=O)(=O)O)cc3S(=O)(=O)[O-])c3ccc(Br)cc3[o+]c2c1` [Compound 29], the Target entry is reported as “Endothelial”.

Consider `CN(C)c1ccc2c(-c3ccc(S(=O)(=O)O)cc3S(=O)(=O)[O-])c3cc(Br)ccc3[o+]c2c1` [Compound 38, 2-(2-bromo-6-(dimethylamino)xanthylium-9-yl)-5-sulfobenzenesulfonate], for which the Target entry is “Astrocyte”.

For `O=[N+]([O-])c1ccc2c(c1)Oc1c3c4c(cc1=C2c1ccc(S(=O)(=O)O)cc1S(=O)(=O)[O-])CCC[N+]=4CCC3` [Compound 35, 2-(12-nitro-1,2,3,5,6,7-hexahydrochromeno[2,3-f]pyrido[3,2,1-ij]quinolin-4-ium-9-yl)-5-sulfobenzenesulfonate], the Target result is listed as “Astrocyte”.

Turning to `CCN(CC)c1ccc2c(-c3ccc(S(=O)(=O)O)cc3S(=O)(=O)[O-])c3ccc(N(CC)CC)cc3[o+]c2c1` [Compound 46, 2-(3,6-bis(diethylamino)xanthylium-9-yl)-5-sulfobenzenesulfonate], the Target entry is recorded as “Endothelial”.

Consider `O=S(=O)([O-])c1cc(S(=O)(=O)O)ccc1-c1c2ccc(Br)cc2[o+]c2ccc(S(=O)(=O)O)cc12` [Compound 32, 2-(6-bromo-2-sulfoxanthylium-9-yl)-5-sulfobenzenesulfonate], for which the Target result was “Endothelial”.

With `O=S(=O)([O-])c1cc(S(=O)(=O)O)ccc1C1=c2cc3c4c(c2Oc2cc(F)ccc21)CCC[N+]=4CCC3` [Compound 2, 2-(12-fluoro-1,2,3,5,6,7-hexahydrochromeno[2,3-f]pyrido[3,2,1-ij]quinolin-4-ium-9-yl)-5-sulfobenzenesulfonate], the Target entry is listed as “Endothelial”.

On to `O=S(=O)([O-])c1cc(S(=O)(=O)O)ccc1C1=c2cc3c4c(c2Oc2c1cc1ccccc1c2Br)CCC[N+]=4CCC3` [Compound 45, 2-(15-bromo-1,2,3,5,6,7-hexahydrobenzo[6,7]chromeno[2,3-f]pyrido[3,2,1-ij]quinolin-4-ium-9-yl)-5-sulfobenzenesulfonate], for which the Target entry is recorded as “Endothelial”.

As to `O=S(=O)([O-])c1cc(S(=O)(=O)O)ccc1C1=c2cc3c4c(c2Oc2cc(Br)c(F)cc21)CCC[N+]=4CCC3` [Compound 14, 2-(12-bromo-11-fluoro-1,2,3,5,6,7-hexahydrochromeno[2,3-f]pyrido[3,2,1-ij]quinolin-4-ium-9-yl)-5-sulfobenzenesulfonate], the Target result is given as “Endothelial”.

On to `O=S(=O)([O-])c1cc(S(=O)(=O)O)ccc1C1=c2cc3c4c(c2Oc2cc(F)c(F)cc21)CCC[N+]=4CCC3` [Compound 8, 2-(11,12-difluoro-1,2,3,5,6,7-hexahydrochromeno[2,3-f]pyrido[3,2,1-ij]quinolin-4-ium-9-yl)-5-sulfobenzenesulfonate], for which the Target result is recorded as “Endothelial”.

The same test, now with this note: topical cortical administration, 50 μM, wild type mice.
Turning to `CN(C)c1ccc2c(-c3ccc(S(=O)(=O)Cl)cc3S(=O)(=O)[O-])c3ccc(N(C)C)cc3[o+]c2c1` [Compound 54, 2-(3,6-bis(dimethylamino)xanthylium-9-yl)-5-(chlorosulfonyl)benzenesulfonate], the “cellular labeling in cortex” value is “robust endothelial specific uptake”.

The test is the same for the next values; noted with them: topical cortical application.
As for `O=S(=O)([O-])c1cc(S(=O)(=O)O)ccc1C1=c2cc3c4c(c2Oc2cc(F)ccc21)CCC[N+]=4CCC3` [Compound 2, 2-(12-fluoro-1,2,3,5,6,7-hexahydrochromeno[2,3-f]pyrido[3,2,1-ij]quinolin-4-ium-9-yl)-5-sulfobenzenesulfonate], the “endothelial cell labeling/uptake after topical application to the brain” value is reported as “selectively labeling endothelial cells in vivo”.

Staying with this test, now noted: two-photon images of mouse cortex; route and concentration not stated.
With `CC(=O)N(O)CCCCCNC(=O)CCC(=O)N(O)CCCCCNC(=O)CCC(=O)N(O)CCCCCNS(=O)(=O)c1ccc(-c2c3ccc(N(C)C)cc3[o+]c3cc(N(C)C)ccc23)c(S(=O)(=O)[O-])c1` [Compound 49, 2-(3,6-bis(dimethylamino)xanthylium-9-yl)-5-(N-(3,14,25-trihydroxy-2,10,13,21,24-pentaoxo-3,9,14,20,25-pentaazatriacontan-30-yl)sulfamoyl)benzenesulfonate], the “in vivo endothelial labeling/uptake” value is recorded as “robust endothelial cell body uptake”.
